Laboratory results published in patent US10392428B2, “GLP-1 derivatives and uses thereof” (Novo Nordisk A/S, priority 2014, dated 2019).
Where two headings read alike, the source gives them in different places. Non-standard residues stand in square brackets, D forms with d. Residues, ends and D or L forms follow the SMILES beside them. Groups on a side chain read outwards from the residue. *: point of attachment. X1 = O=C(O)CCCCCCCCCCCCCCCCCCC(=O)NC[C@H]1CC[C@H](C(=O)N[C@@H](CCC(=O)NCCOCCOCC(=O)NCCOCCOCC(=O)NCCCC[C@H](NC(=O)COCCOCCNC(=O)COCCOCCNC(=O)CC[C@H](NC(=O)[C@H]2CC[C@H](CNC(=O)CCCCCCCCCCCCCCCCCCC(=O)O)CC2)C(=O)O)C(=O)*)C(=O)O)CC1; Desaminohistidyl = O=C(CCc1c[nH]cn1)*; AEEA = NCCOCCOCC(=O)O; Aib = CC(C)(N)C(=O)O

Assays:
[1] = target: T1, human GLP-1 receptor (Homo sapiens, UniProt P43220); experiment: GLP-1 receptor binding: competitive binding assay (125I-GLP-1, SPA) on isolated membranes at low and high HSA
T1 construct: expressed in transfected cells; host or cells: membrane preparation from BHK cells, clone FCW467-12A (parent line BHKTS13)
Procedure: The purpose of this example is to test the receptor binding of the GLP-1 derivatives in vitro. The receptor binding is a measure of affinity of a derivative for the human GLP-1 receptor.
Each derivative is added in a series of concentrations to isolated membranes containing the human GLP-1 receptor and displacement of the labelled ligand is monitored. The receptor binding is reported as the concentration at which half of the labelled ligand is displaced from the receptor, the IC50 value.
Buffer 1 consisted of 20 mM Na-HEPES plus 10 mM EDTA and pH was adjusted to 7.4. Buffer 2 consisted of 20 mM Na-HEPES plus 0.1 mM EDTA and pH was adjusted to 7.4. Assay buffer consisted of 50 mM HEPES supplemented with 5 mM EGTA, 5 mM MgCl2, 0.005% Tween 20 and pH was adjusted to 7.4. An 8% albumin stock consisted of HSA dissolved at 8% (w/v) in assay buffer. An 0.02% albumin stock consisted of HSA dissolved at 0.02% (w/v) in assay buffer.
The cells express the human GLP-1 receptor.
The cells were grown at 5% CO2 in DMEM, 10% fetal calf serum, 1% Pen/Strep (Penicillin/Streptomycin) and 1.0 mg/ml of the selection marker G418.
To make a membrane preparation the cells were grown to approximately 80% confluence. The cells were washed twice in phosphate-buffered saline and harvested. The cells were pelleted using a brief centrifugation and the cell pellet was kept on ice. […] The homogenate was centrifuged for 15 minutes. The pellet was re-suspended (homogenised) in 10 ml buffer 2 and centrifuged. This step was repeated once more. The resulting pellet was re-suspended in buffer 2 and the protein concentration was determined. The membranes were aliquoted and stored at minus 80° C.
For the receptor binding assay in the presence of low HSA (0.005%) 50 μl of the assay buffer was added to each well of an assay plate.
For the receptor binding assay in the presence of high HSA (2%) 50 μl of the 8% albumin stock was added to each well of an assay plate.
Cell membrane aliquots were thawed and diluted to their working concentration. Fifty μl were added to each well in the assay plate.
WGA SPA beads were suspended in assay buffer at 20 mg/ml. The suspension was diluted to 10 mg/ml in assay buffer just prior to addition to the assay plate. Fifty μl were added to each well in the assay plate.
A 25 μl aliquot was reserved for measuring total counts/well.
The assay plate was incubated for 2 h at 30° C.
The assay plate was centrifuged for 10 min.
The assay plate was read in a Packard TopCount NXT instrument.
The data from the TopCount instrument were transferred to Graph Pad Prism software. Individual replicates were analysed using non-linear regression. IC50 values were calculated by the software and reported in nM. The reported values are averages of all of the measured values for each compound.

[2] = Pharmacokinetic study in minipigs (i.v.); settings: male, Göttingen, minipig, in vivo, iv, minipigs, i.v., harmonic mean, read-out: Terminal half-live (converted)
Procedure: The derivatives of Examples 12, 14, and 15 were dosed 2 nmol/kg. The derivatives of Examples 1 and 2 were dosed 15 nmol/kg.

T1 sequence (P43220 24-463): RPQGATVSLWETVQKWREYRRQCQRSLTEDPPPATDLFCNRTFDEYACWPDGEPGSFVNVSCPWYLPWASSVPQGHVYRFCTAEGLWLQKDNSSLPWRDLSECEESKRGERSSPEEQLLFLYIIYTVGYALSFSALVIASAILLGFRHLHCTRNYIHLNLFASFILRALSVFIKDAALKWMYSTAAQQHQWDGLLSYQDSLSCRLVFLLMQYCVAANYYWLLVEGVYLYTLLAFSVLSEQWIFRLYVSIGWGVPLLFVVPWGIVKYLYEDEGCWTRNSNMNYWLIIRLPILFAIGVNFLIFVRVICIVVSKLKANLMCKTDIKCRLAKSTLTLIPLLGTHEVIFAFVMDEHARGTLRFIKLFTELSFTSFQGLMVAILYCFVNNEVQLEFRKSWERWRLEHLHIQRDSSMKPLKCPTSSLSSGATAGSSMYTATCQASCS

SMILES: CC[C@H](C)[C@H](NC(=O)[C@H](Cc1ccccc1)NC(=O)[C@H](CCC(=O)O)NC(=O)[C@H](CCCNC(=N)N)NC(=O)[C@H](C)NC(=O)[C@H](C)NC(=O)[C@H](CCC(N)=O)NC(=O)[C@H](CCC(=O)O)NC(=O)[C@H](CCC(=O)O)NC(=O)[C@H](CC(C)C)NC(=O)[C@H](Cc1ccc(O)cc1)NC(=O)[C@H](CO)NC(=O)[C@H](CO)NC(=O)[C@@H](NC(=O)[C@H](CC(=O)O)NC(=O)[C@H](CO)NC(=O)[C@@H](NC(=O)[C@H](Cc1ccccc1)NC(=O)[C@@H](NC(=O)CNC(=O)[C@H](CCC(=O)O)NC(=O)C(C)(C)NC(=O)[C@@H](N)Cc1c[nH]cn1)[C@@H](C)O)[C@@H](C)O)C(C)C)C(=O)N[C@@H](C)C(=O)N[C@@H](Cc1c[nH]c2ccccc12)C(=O)N[C@@H](CC(C)C)C(=O)N[C@H](C(=O)N[C@@H](CCCNC(=N)N)C(=O)NCC(=O)N[C@@H](CCCNC(=N)N)C(=O)N[C@@H](CCCCNC(=O)COCCOCCNC(=O)COCCOCCNC(=O)COCCOCCNC(=O)COCCOCCNC(=O)[C@H](CCCCNC(=O)COCCOCCNC(=O)CC[C@H](NC(=O)[C@H]1CC[C@H](CNC(=O)CCCCCCCCCCCCCCCCCCC(=O)O)CC1)C(=O)O)NC(=O)COCCOCCNC(=O)CC[C@H](NC(=O)[C@H]1CC[C@H](CNC(=O)CCCCCCCCCCCCCCCCCCC(=O)O)CC1)C(=O)O)C(=O)O)C(C)C [Example 21, N{Epsilon-37}-[2-[2-[2-[[2-[2-[2-[[2-[2-[2-[[2-[2-[2-[[(2S)-2,6-bis[[2-[2-[2-[[(4S)-4-carboxy-4-[[4-[(19-carboxynonadecanoylamino)methyl]cyclohexanecarbonyl]amino]butanoyl]amino]ethoxy]ethoxy]acetyl]amino]hexanoyl]amino]ethoxy]ethoxy]acetyl]amino]ethoxy]ethoxy]acetyl]amino]ethoxy]ethoxy]acetyl]amino]ethoxy]ethoxy]acetyl]-[Aib8,Glu22,Arg26,Arg34,Lys37]-GLP-1-(7-37)-peptide]
- IC50 ([1]; High HSA IC50 (nM), high HSA (2.0% final assay concentration)): 19 nM
- IC50 ([1]; Low HSA IC50 (nM), low HSA (max. 0.001% final assay concentration)): 1.5 nM

SMILES: CC[C@H](C)[C@H](NC(=O)[C@H](Cc1ccccc1)NC(=O)[C@H](CCC(=O)O)NC(=O)[C@H](CCCNC(=N)N)NC(=O)[C@H](C)NC(=O)[C@H](C)NC(=O)[C@H](CCC(N)=O)NC(=O)[C@H](CCC(=O)O)NC(=O)[C@H](CCC(=O)O)NC(=O)[C@H](CC(C)C)NC(=O)[C@H](Cc1ccc(O)cc1)NC(=O)[C@H](CO)NC(=O)[C@H](CO)NC(=O)[C@@H](NC(=O)[C@H](CC(=O)O)NC(=O)[C@H](CO)NC(=O)[C@@H](NC(=O)[C@H](Cc1ccccc1)NC(=O)[C@@H](NC(=O)CNC(=O)[C@H](CCC(=O)O)NC(=O)C(C)(C)NC(=O)[C@@H](N)Cc1c[nH]cn1)[C@@H](C)O)[C@@H](C)O)C(C)C)C(=O)N[C@@H](C)C(=O)N[C@@H](Cc1c[nH]c2ccccc12)C(=O)N[C@@H](CC(C)C)C(=O)N[C@H](C(=O)N[C@@H](CCCNC(=N)N)C(=O)NCC(=O)N[C@@H](CCCNC(=N)N)C(=O)N[C@@H](CCCCNC(=O)COCCOCCNC(=O)COCCOCCNC(=O)COCCOCCNC(=O)COCCOCCNC(=O)[C@H](CCCCNC(=O)CC[C@H](NC(=O)[C@H]1CC[C@H](CNC(=O)CCCCCCCCCCCCCCCCCCC(=O)O)CC1)C(=O)O)NC(=O)CC[C@H](NC(=O)[C@H]1CC[C@H](CNC(=O)CCCCCCCCCCCCCCCCCCC(=O)O)CC1)C(=O)O)C(=O)O)C(C)C [Example 8, N{Epsilon-37}-[2-[2-[2-[[2-[2-[2-[[2-[2-[2-[[2-[2-[2-[[(2S)-2,6-bis[[(4S)-4-carboxy-4-[[4-[(19-carboxynonadecanoylamino)methyl]cyclohexanecarbonyl]amino]butanoyl]amino]hexanoyl]amino]ethoxy]ethoxy]acetyl]amino]ethoxy]ethoxy]acetyl]amino]ethoxy]ethoxy]acetyl]amino]ethoxy]ethoxy]acetyl]-[Aib8,Glu22,Arg26,Arg34,Lys37]-GLP-1-(7-37)-peptide]
- half-life ([2]; 5 nmol/kg): 145 h

SMILES: CC[C@H](C)[C@H](NC(=O)[C@H](Cc1ccccc1)NC(=O)[C@H](CCC(=O)O)NC(=O)[C@H](CCCNC(=N)N)NC(=O)[C@H](C)NC(=O)[C@H](C)NC(=O)[C@H](CCC(N)=O)NC(=O)[C@H](CCC(=O)O)NC(=O)[C@H](CCC(=O)O)NC(=O)[C@H](CC(C)C)NC(=O)[C@H](Cc1ccc(O)cc1)NC(=O)[C@H](CO)NC(=O)[C@H](CO)NC(=O)[C@@H](NC(=O)[C@H](CC(=O)O)NC(=O)[C@H](CO)NC(=O)[C@@H](NC(=O)[C@H](Cc1ccccc1)NC(=O)[C@@H](NC(=O)CNC(=O)[C@H](CCC(=O)O)NC(=O)C(C)(C)NC(=O)[C@@H](N)Cc1c[nH]cn1)[C@@H](C)O)[C@@H](C)O)C(C)C)C(=O)N[C@@H](C)C(=O)N[C@@H](Cc1c[nH]c2ccccc12)C(=O)N[C@@H](CC(C)C)C(=O)N[C@H](C(=O)N[C@@H](CCCNC(=N)N)C(=O)NCC(=O)N[C@@H](CCCNC(=N)N)C(=O)N[C@@H](CCCCNC(=O)COCCOCCNC(=O)COCCOCCNC(=O)COCCOCCNC(=O)COCCOCCNC(=O)COCCOCCNC(=O)COCCOCCNC(=O)[C@H](CCCCNC(=O)CC[C@H](NC(=O)[C@H]1CC[C@H](CNC(=O)CCCCCCCCCCCCCCCCCCC(=O)O)CC1)C(=O)O)NC(=O)CC[C@H](NC(=O)[C@H]1CC[C@H](CNC(=O)CCCCCCCCCCCCCCCCCCC(=O)O)CC1)C(=O)O)C(=O)O)C(C)C [Example 12]
- half-life ([2]; 2 nmol/kg): 142 h

SMILES: CC[C@H](C)[C@H](NC(=O)[C@H](Cc1ccccc1)NC(=O)[C@H](CCC(=O)O)NC(=O)[C@H](CCCNC(=N)N)NC(=O)[C@H](C)NC(=O)[C@H](C)NC(=O)[C@H](CCC(N)=O)NC(=O)[C@H](CCC(=O)O)NC(=O)[C@H](CCC(=O)O)NC(=O)[C@H](CC(C)C)NC(=O)[C@H](Cc1ccc(O)cc1)NC(=O)[C@H](CO)NC(=O)[C@H](CO)NC(=O)[C@@H](NC(=O)[C@H](CC(=O)O)NC(=O)[C@H](CO)NC(=O)[C@@H](NC(=O)[C@H](Cc1ccccc1)NC(=O)[C@@H](NC(=O)CNC(=O)[C@H](CCC(=O)O)NC(=O)C(C)(C)NC(=O)CCc1cnc[nH]1)[C@@H](C)O)[C@@H](C)O)C(C)C)C(=O)N[C@@H](C)C(=O)N[C@@H](Cc1c[nH]c2ccccc12)C(=O)N[C@@H](CC(C)C)C(=O)N[C@H](C(=O)N[C@@H](CCCNC(=N)N)C(=O)NCC(=O)N[C@@H](CCCNC(=N)N)C(=O)NCC(=O)NCC(=O)N[C@@H](CCCCNC(=O)COCCOCCNC(=O)COCCOCCNC(=O)[C@H](CCCCNC(=O)COCCOCCNC(=O)COCCOCCNC(=O)CC[C@H](NC(=O)[C@H]1CC[C@H](CNC(=O)CCCCCCCCCCCCCCCCCCC(=O)O)CC1)C(=O)O)NC(=O)COCCOCCNC(=O)COCCOCCNC(=O)CC[C@H](NC(=O)[C@H]1CC[C@H](CNC(=O)CCCCCCCCCCCCCCCCCCC(=O)O)CC1)C(=O)O)C(=O)O)C(C)C [Example 7, [Imp7,Aib8,Glu22,Arg26,Arg34]-GLP-1-(7-37)-peptidyl-Gly-N{Epsilon}[2-[2-[2-[[2-[2-[2-[[(2S)-2,6-bis[[2-[2-[2-[[2-[2-[2-[[(4S)-4-carboxy-4-[[4-[(19-carboxynonadecanoylamino)methyl]cyclohexanecarbonyl]amino]butanoyl]amino]ethoxy]ethoxy]acetyl]amino]ethoxy]ethoxy]acetyl]amino]hexanoyl]amino]ethoxy]ethoxy]acetyl]amino]ethoxy]ethoxy]acetyl]Lys] (Desaminohistidyl-[Aib]EGTFTSDVSSYLEEQAAREFIAWLVRGRGGK([AEEA-AEEA-X1])-OH; C-terminus assumed)
- half-life ([2]; 5 nmol/kg): 134 h
